Two molecules from ChEMBL document CHEMBL1144651, “Concise synthesis of dideoxy-epigallocatechin gallate (DO-EGCG) and evaluation of its anti-influenza virus activity” (Bioorg Med Chem Lett, 2007) can be followed below.

In this test the test system is Influenza A virus. The test can be described thus: Antiviral activity against Influenza A virus (A/Memphis/1/71(H3N2)) in MDCK cells after 16 hrs by focus forming assay. It counts as functional, organism-based, Influenza A virus (A/Memphis/1/1971(H3N2)).

The molecule `O=C(O[C@@H]1Cc2ccccc2O[C@@H]1c1cc(O)c(O)c(O)c1)c1cc(O)c(O)c(O)c1` had an IC50 of 11.9 µM.

In the case of `O=C(O[C@@H]1Cc2c(O)cc(O)cc2O[C@@H]1c1cc(O)c(O)c(O)c1)c1cc(O)c(O)c(O)c1` [EPIGALOCATECHIN GALLATE], it took 41.2 µM to reach half-maximal inhibition (IC50).

As usually defined, the IC50 is the concentration that inhibits the measured activity by half.
